The values that follow come from publication PMC6545112 (Journal of medicinal chemistry, 2018).

Entries after “also recorded” stand apart in the source; their conditions may differ. Read-outs that look alike come from different tables or passages of the source.

For orientation: IC50 means the point on the concentration scale where inhibition reaches its midpoint.

Assay [1] has as its target MDM2 and p53 proteins in MV4;11 cell line (Homo sapiens, UniProt Q00987). The assay is described as follows: western blotting analysis of MDM2 and p53 proteins in MV4. It counts as cell-based. To be noted: MV4;11, 2 h, compared to RS4;11.
A further assay concerns OCL-AML-5. The assay is described as follows: cell growth inhibition assay, OCL-AML-5. The following applies: read-out: IC50 (nM) in cell growth inhibition assay; OCL-AML-5, AML, p53 WT. It counts as cell-based, human.
Another assay relates to SIG-M5. The assay is described as follows: cell growth inhibition assay, SIG-M5. The class given is cell-based, human. The following applies: read-out: IC50 (nM) in cell growth inhibition assay; SIG-M5, AML, p53 WT.
In the next assay the test system is RS4;11 cell line. In words: cell growth inhibition, WST-8 assay, RS4. The following applies: for IC50: read-out: IC50 (nM) in inhibition of cell growth in the RS4;11 cell line, 4 days, WST-8 assay. The class given is cell-based, human. A general note: Tetrazolium assays rely on reduction of a dye to a coloured formazan, in cell work by metabolically active cells.

The next assay relates to Mono-Mac-6. In words: cell growth inhibition assay, Mono-Mac-6. The class given is cell-based, human. The following applies: read-out: IC50 in cell growth inhibition assay; Mono-Mac-6, AML, p53 MUT.
Assay [2] deals with MDM2 and p53 proteins in RS4;11 cells (Homo sapiens, UniProt Q00987). The assay is described as follows: western blotting analysis of MDM2 and p53 proteins in RS4. It counts as cell-based. To be noted: 2 h treatment; for concentration that reduces/depletes MDM2 protein: RS4;11 / leukemia cells; for effect on MDM2 and p53 protein levels (western blotting): RS4;11 cells.
Chain of MDM2 and p53 proteins in RS4;11 cells (Q00987 whole entry): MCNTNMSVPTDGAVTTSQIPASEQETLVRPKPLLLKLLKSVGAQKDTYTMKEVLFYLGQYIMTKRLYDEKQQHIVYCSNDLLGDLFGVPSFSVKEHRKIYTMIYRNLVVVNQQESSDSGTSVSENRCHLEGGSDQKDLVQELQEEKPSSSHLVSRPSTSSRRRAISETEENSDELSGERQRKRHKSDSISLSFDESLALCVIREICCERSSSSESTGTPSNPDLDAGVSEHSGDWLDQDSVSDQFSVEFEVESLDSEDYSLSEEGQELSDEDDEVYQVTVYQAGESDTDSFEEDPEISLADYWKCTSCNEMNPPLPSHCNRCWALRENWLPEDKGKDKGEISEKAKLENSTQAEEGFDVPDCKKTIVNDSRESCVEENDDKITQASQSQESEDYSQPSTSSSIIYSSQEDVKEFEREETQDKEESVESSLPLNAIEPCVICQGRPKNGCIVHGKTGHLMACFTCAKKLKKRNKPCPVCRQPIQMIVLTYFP
Assay [3] concerns p53 target genes (MDM2, p21, PUMA) and TP53 in RS4;11 cells. In words: qRT-PCR analysis of mRNA levels of p53 target genes and TP53 in RS4. The following applies: RS4;11, 6 h. The class given is cell-based, human. Background: Real-time PCR tracks product formation cycle by cycle.
A further assay relates to MOLM-13. The assay is described as follows: cell growth inhibition assay, MOLM-13. The class given is cell-based, human. To be noted: read-out: IC50 (nM) in cell growth inhibition assay; MOLM-13, AML, p53 WT.
The next assay has as its system ML-2. The assay is described as follows: cell growth inhibition assay, ML-2. The class given is cell-based, human. To be noted: read-out: IC50 (nM) in cell growth inhibition assay; ML-2, AML, p53 WT.
Another assay relates to KG-1. The assay is described as follows: cell growth inhibition assay, KG-1. It counts as cell-based, human. To be noted: read-out: IC50 in cell growth inhibition assay; KG-1, AML, p53 MUT.
The next assay has as its system MOLM-14. In words: cell growth inhibition assay, MOLM-14. The following applies: read-out: IC50 (nM) in cell growth inhibition assay; MOLM-14, AML, p53 WT. The class given is cell-based, human.

Chain of MDM2 and p53 proteins in MV4;11 cell line (Q00987 whole entry): as above

Turning to “(3’R,4’S,5’R)-6”-Chloro-4’-(3-Chloro-2-fluorophenyl)-N-(4-((5-(2-(2,6-dioxopiperidin-3-yl)-1-oxoisoindolin-4-yl)pentyl)carbamoyl)phenyl)-2”-oxodispiro[cyclohexane-1,2’-pyrrolidine-3’,3”-indoline]-5’-carboxamide [Compound 13]”, the “effect on MDM2 and p53 protein levels (western blotting)” value (“effect on MDM2 and p53 protein levels” below) in [1] is “similarly potent and effective in inducing depletion of MDM2 protein and accumulation of p53 protein”. Besides, the IC50 was 58.2 ± 29 nM in the assay on OCL-AML-5; 29.9 ± 16 nM in the assay with SIG-M5; 2.8 ± 1.1 nM in the assay with RS4;11 cell line; > 10000 nM with Mono-Mac-6; 11.7 ± 4 nM in the assay on MOLM-13; 11.5 ± 6 nM in the assay on ML-2. For the same compound, the IC50 in the assay with KG-1 was > 10000 nM; with MOLM-14, 22.5 ± 8 nM. Besides, in the assay with RS4;11 cell line (RS4;11), the “times more potent than 1 in inhibition of cell growth” value is 4 times. Also, in assay [2], the “concentration that reduces/depletes MDM2 protein” value is recorded as ≤ 1 nM. The “effect on TP53 mRNA” value in assay [3] was “have no effect on TP53”. Further, the “times more potent than MI-1061 in transcriptional upregulation of p53 target genes” value in [3] was > 10 times.
Regarding “(3’R,4’S,5’R)-6”-Chloro-4’-(3-Chloro-2-fluorophenyl)-N-(4-((5-(2-(2,6-dioxopiperidin-3-yl)-3-oxoisoindolin-5-yl)pent-4-yn-1-yl)carbamoyl)phenyl)-2”-oxodispiro[cyclohexane-1,2’-pyrrolidine-3’,3”-indoline]-5’-carboxamide [Compound 17]”, in the assay on RS4;11 cell line (RS4;11), the “times less potent than MD-224 in inhibition of cell growth” value turned out to be 3 times. The half-inhibitory concentration (IC50) with RS4;11 cell line came to 5 ± 3 nM. Besides, in [2], the “effect on MDM2 and p53 protein levels” value is “effectively induce degradation of MDM2 and accumulation of p53”.
`O=C1CCC(N2C(=O)c3cccc(NCCCCNC(=O)c4ccc(NC(=O)[C@@H]5NC6(CCCCC6)[C@@]6(C(=O)Nc7cc(Cl)ccc76)[C@H]5c5cccc(Cl)c5F)cc4)c3C2=O)C(=O)N1` (stereo partly drawn) [Compound 1, (3’R,4’S,5’R)-6”-Chloro-4’-(3-Chloro-2-fluorophenyl)-N-(4-((4-((2-(2,6-dioxopiperidin-3-yl)-1,3-dioxoisoindolin-4-yl)amino)butyl)carbamoyl)phenyl)-2”-oxodispiro[cyclohexane-1,2’-pyrrolidine-3’,3”-indoline]-5’-carboxamide]: the “times more potent than MI-1061 and MI-1242 in inhibition of cell growth” value in the assay with RS4;11 cell line (RS4;11) is “about 10 times”. Further, in [2], the “concentration that reduces/depletes MDM2 protein” value came to 3 nM; the “effect on MDM2 and p53 protein levels” value was “effectively reduce the level of MDM2 protein”.
`O=C1CCC(N2Cc3c(C#CCCCNC(=O)c4ccc(NC(=O)[C@H]5NC6(CCCCC6)[C@]6(C(=O)Nc7cc(Cl)ccc76)[C@@H]5c5cccc(Cl)c5F)cc4)cccc3C2=O)C(=O)N1` (stereo partly drawn) [Compound 21, (3’S,4’R,5’S)-6”-Chloro-4’-(3-chloro-2-fluorophenyl)-N-(4-((5-(2-(2,6-dioxopiperidin-3-yl)-1-oxoisoindolin-4-yl)pent-4-yn-1-yl)carbamoyl)phenyl)-2”-oxodispiro[cyclohexane-1,2’-pyrrolidine-3’,3”-indoline]-5’-carboxamide]: the “activity in inhibition of cell growth (in words)” value in the assay on RS4;11 cell line (RS4;11) is given as “minimal activity”. In assay [2], the “effect on MDM2 and p53 protein levels” value was “fails to induce any MDM2 degradation”.
On to “(3’R,4’S,5’R)-6”-Chloro-4’-(3-chloro-2-fluorophenyl)-N-(4-((2-(2,6-dioxopiperidin-3-yl)-1-oxoisoindolin-4-yl)carbamoyl)phenyl)-2”-oxodispiro[cyclohexane-1,2’-pyrrolidine-3’,3”-indoline]-5’-carboxamide [Compound 3]”, for which, in the assay on RS4;11 cell line, the IC50 is 68.4 ± 36 nM. In addition, in assay [2], the “effect on MDM2 and p53 protein levels” value is listed as “fails to induce MDM2 degradation”.
Turning to `O=C1CCC(N2C(=O)c3cccc(NCCOCCOCCNC(=O)c4ccc(NC(=O)[C@@H]5NC6(CCCCC6)[C@@]6(C(=O)Nc7cc(Cl)ccc76)[C@H]5c5cccc(Cl)c5F)cc4)c3C2=O)C(=O)N1` (stereo partly drawn) [Compound 2, (3’R,4’S,5’R)-6”-Chloro-4’-(3-Chloro-2-fluorophenyl)-N-(4-((2-(2-(2-((2-(2,6-dioxopiperidin-3-yl)-1,3-dioxoisoindolin-4-yl)amino)ethoxy)ethoxy)-ethyl)carbamoyl)phenyl)-2”-oxodispiro[cyclohexane-1,2’-pyrrolidine-3’,3”-indoline]-5’-carboxamide], in the assay with RS4;11 cell line (RS4;11), the “times more potent than MI-1061 and MI-1242 in inhibition of cell growth” value is on record as “about 10 times”. The “effect on MDM2 and p53 protein levels” value in [2] was “effectively reduce the level of MDM2 protein; also recorded: effectively induce degradation of MDM2 and accumulation of p53”.
For the compound “(3’R,4’S,5’R)-6”-Chloro-4’-(3-Chloro-2-fluorophenyl)-N-(4-((5-(2-(2,6-dioxopiperidin-3-yl)-1-oxoisoindolin-5-yl)pent-4-yn-1-yl)carbamoyl)phenyl)-2”-oxodispiro[cyclohexane-1,2’-pyrrolidine-3’,3”-indoline]-5’-carboxamide [Compound 16]”, the “times less potent than MD-224 in inhibition of cell growth” value with RS4;11 cell line (RS4;11) stood at 3 times. Further, the IC50 with RS4;11 cell line was found to be 5 ± 2 nM. Also, the “effect on MDM2 and p53 protein levels” value in assay [2] was “effectively induce degradation of MDM2 and accumulation of p53”.
As to `O=C1CCC(N2C(=O)c3cccc(NCCOCCOCCOCCNC(=O)c4ccc(NC(=O)[C@@H]5NC6(CCCCC6)[C@@]6(C(=O)Nc7cc(Cl)ccc76)[C@H]5c5cccc(Cl)c5F)cc4)c3C2=O)C(=O)N1` (stereo partly drawn) [Compound 10, (3’R,4’S,5’R)-6”-Chloro-4’-(3-Chloro-2-fluorophenyl)-N-(4-((2-(2-(2-(2-((2-(2,6-dioxopiperidin-3-yl)-1,3-dioxoisoindolin-4-yl)amino)ethoxy)ethoxy)ethoxy)-ethyl)carbamoyl)phenyl)-2”-oxodispiro[cyclohexane-1,2’-pyrrolidine-3’,3”-indoline]-5’-carboxamide], the IC50 with RS4;11 cell line (Homo sapiens, RS4-11, 96 h) was found to be 4.5 nM. For the same compound, the “effect on MDM2 and p53 protein levels” value in [2] was “effectively induce degradation of MDM2 and accumulation of p53”.
